Measured values reported in patent US6506339B1, “Method of sterilization” (Biomedical Design, Inc., priority 1997, dated 2003).
Where “and” joins values, the source holds several entries; their conditions need not be identical. Equal values may be shown once.

Tests used:
[1] = tested on: Methylbacterium extorquens ATCC 43645 vegetative cells; experiment: Sterilization in cups at about 38° C. (Example 6); type: cell-based, Methylobacterium extorquens; conditions: 25 mM EDC, 20% isopropanol, inoculum Log 10 6.94
Description: In view of the foregoing verification, it was decided to test the effectiveness of the sterilization process against other bacteria using sterile cups. Added to each of the cups is 20 ml of 10 mM HEPES, 0.85%, Nacl, 20% isopropanol, pH 6.5, containing 25 mM EDC without any coupling enhancer, before the cups are placed in a incubator at about 38° C. When the solution temperature reached about 38° C., approximately 10^5-10^6 organisms were inoculated into the solution. The tests were carried out in triplicate. The following four isolated were tested in the form of sporous suspensions: Clostridium sporogenes ATCC 3584, Bacillus pumilus ATCC 27142, Chaetonium globosom ATCC 6205, and Microacus cinereus ATCC 16594. The following three isolates were tested as vegetative cells: Mycobacterium chelonae ATCC 35752, Methylbacterium extorquens ATCC 43645 and Trichosporon aquatile ATCC 22310. The inoculated systems were allowed to incubate for 1 hour, for 5 hours or for 24 hours, and the solutions were then filtered through a 0.45 micron filter. After rinsing, the filter was placed on a TSA plate as described in Example 1. Negative and positive controls indicate that the tests were valid. The results are set forth in Table D which follows wherein the number of CFUs in the inoculum is expressed as its log to the base 10, e.g. 3.4×10^5=5.5: […]

[2] = tested on: Bacillus subtilis (niger) spores; experiment: D values of EDC without isopropyl alcohol, 40° C. (Example 4A); type: cell-based; conditions: no isopropyl alcohol; for incubation duration necessary to achieve 6 log reduction: calculated from D value
Description: The following experiment was carried out to assess the effectiveness of a coupling agent, such as EDC, in the absence of isopropyl alcohol or an equivalent alkanol. Bacillus subtilis (niger) spores at levels of 1.5×10^6 were inoculated in sterile cups for approximately 10 minutes. Solutions (50 ml) of 25, 37.5 and 50 mM EDC in 10 mM TRIS, 0.85% NaCl, pH 6.5, which contain no isopropyl alcohol, were prewarmed to 40° C. and then rapidly added to the cups. The cups were incubated at 40° C. for 0.5, 1, 6, 24 and 48 hours; then, the solutions were diluted and filtered in order to collect microorganisms. Next, the filters were rinsed with a 0.1% peptone water solution to eliminate any residual EDC and then incubated on TSA plates for up to 14 days. The plates were examined every day for growth, with the colony forming units (CFUs) being counted, and resulting D values were calculated. Such D values represent the duration (in minutes) of incubation to decrease the level of spores by one log, i.e. eliminating 90% of the spores population.

[3] = tested on: spores of Bacillus subtilis; experiment: Effect of EDC concentration, temperature and duration on spores on cross-linked tissue (Example 4); type: cell-based; conditions: 20% IPA
Description: The following experiment was designed to test the effect of EDC concentration, of temperature and of duration of incubation on the inactivation of spores of Bacillus subtilis. The EDC concentrations tested were 5, 12.5 and 20 mM; the temperatures were 25, 32.5 and 40° C. for 4, 24 and 44 hours of incubation. […] Spores of Bacillus subtilis (about 2.5×10^5 per sample) were inoculated on tissue that had been cross-linked using the fixation method described in the '536 patent. The spores were allowed to contact the tissue for 10 minutes, after which time 50 ml of a solution of EDC at one of the concentrations indicated above was added to each cup containing the tissue plus the spores, and incubation was carried out at the respective temperatures and for the respective lengths of time. After such incubation for either 4, 24 or 44 hours, the solutions were filtered to recover the spores, and these were incubated on TSA plates for 2 weeks at 32 to 33° C. The tissue samples were washed with a solution containing a surfactant to fully extract the spores from the tissue, and the resulting solutions were filtered. After washing with 0.1% peptone water, the filters were incubated on TSA plates for 2 weeks at 32 to 33° C. in order to determine the number of survivors on or in the tissue. The colonies were enumerated for both the EDC solutions and the tissue wash solutions, and the results (numbers of colony forming units) were added.

[4] = tested on: Bacillus subtilis ATCC 9372 spores; experiment: Sterilization test with or without coupling enhancer (Example 3); type: cell-based; conditions: 20 mM EDC, 20% isopropyl alcohol, 72 hours, about 40° C.
Description: In the experiments described above, a coupling enhancer (Sulfo-NHS) was added to EDC during the sterilization process. The following experiment was designed to test the efficacy of EDC in the presence or absence of an enhancer. A sterilization test process was carried out employing about 5.7 to 6.6×10^5 Bacillus subtilis ATCC 9372 spores, inoculating them in sterile cups for 10 minutes. A solution of 10 mM HEPES, 0.85% NaCl, 20% isopropyl alcohol, pH 6.5 was then added to each of the cups, which solution contained 20 mM EDC and either 1 mM Sulfo-NHS or 1 mM NHS or no enhancer. Incubation was carried out for 72 hours (treatment duration) with the cups at about 40° C., and the solutions from the cups were then filtered. The filters were rinsed with a 0.1% peptone water solution to eliminate any residual EDC and/or enhancer and were then incubated on Trypticase Soy Agar (TSA) plates.

[5] = 5 mM EDC, 25° C., 4 hrs, about 2.5×10^5 spores on tissue
[6] = 5 mM EDC, 25° C., 44 hrs, about 2.5×10^5 spores on tissue
[7] = 5 mM EDC, 32.5° C., 24 hrs, about 2.5×10^5 spores on tissue
[8] = 5 mM EDC, 40° C., 4 hrs, about 2.5×10^5 spores on tissue
[9] = 12.5 mM EDC, 25° C., 24 hrs, about 2.5×10^5 spores on tissue
[10] = 12.5 mM EDC, 32.5° C., 4 hrs, about 2.5×10^5 spores on tissue
[11] = 12.5 mM EDC, 32.5° C., 24 hrs, about 2.5×10^5 spores on tissue (conditions 8-11, replicates), hydrochloride
[12] = 12.5 mM EDC, 32.5° C., 44 hrs, about 2.5×10^5 spores on tissue
[13] = 12.5 mM EDC, 40° C., 24 hrs, about 2.5×10^5 spores on tissue
[14] = 20 mM EDC, 25° C., 4 hrs, about 2.5×10^5 spores on tissue
[15] = 20 mM EDC, 25° C., 44 hrs, about 2.5×10^5 spores on tissue
[16] = 20 mM EDC, 32.5° C., 24 hrs, about 2.5×10^5 spores on tissue

CCN=C=NCCCN(C)C.Cl [EDC, 1-ethyl-3(3-dimethylaminopropyl)carbodiimide hydrochloride]
Log REDUCTION ([1]; 1 Hour): 6.94 | Log REDUCTION ([1]; 5 Hours): 6.94 | D value (duration of incubation to decrease the level of spores by one log) ([2]; 25 mM EDC): 203 minutes | incubation duration necessary to achieve 6 log reduction ([2]; 25 mM EDC): 24 hours | D value (duration of incubation to decrease the level of spores by one log) ([2]; 37.5 mM EDC): 106 minutes | incubation duration necessary to achieve 6 log reduction ([2]; 37.5 mM EDC): 11 hours | D value (duration of incubation to decrease the level of spores by one log) ([2]; 50 mM EDC): 86 minutes | incubation duration necessary to achieve 6 log reduction ([2]; 50 mM EDC): 9 hours | LOG REDUCTION [3, 5]: .27 | SURVIVORS [3, 5]: 135000 CFUs | LOG REDUCTION [3, 6]: 2.3 | SURVIVORS [3, 6]: 1300 CFUs | LOG REDUCTION [3, 7]: 3.0 | SURVIVORS [3, 7]: 208 CFUs | LOG REDUCTION [3, 8]: 2.4 | SURVIVORS [3, 8]: 1100 CFUs | SURVIVORS ([3]; 5 mM EDC, 40° C., 44 hrs, about 2.5×10^5 spores on tissue): 21 CFUs | LOG REDUCTION [3, 9]: 3.0 | SURVIVORS [3, 9]: 225 CFUs | LOG REDUCTION [3, 10]: 1.6 | SURVIVORS [3, 10]: 5900 CFUs | LOG REDUCTION [3, 11]: 3.6 and 3.9 and 3.4 and 3.7 | SURVIVORS [3, 11]: 57 CFUs and 34 CFUs and 94 CFUs and 44 CFUs | LOG REDUCTION [3, 12]: 3.9 | SURVIVORS [3, 12]: 33 CFUs | LOG REDUCTION [3, 13]: 4.0 | SURVIVORS [3, 13]: 27 CFUs | LOG REDUCTION [3, 14]: 0.9 | SURVIVORS [3, 14]: 31400 CFUs | LOG REDUCTION [3, 15]: 4.2 | SURVIVORS [3, 15]: 16 CFUs | LOG REDUCTION [3, 16]: 4.0 | SURVIVORS [3, 16]: 24 CFUs | SURVIVORS ([3]; 20 mM EDC, 40° C., 4 hrs, about 2.5×10^5 spores on tissue): 5 CFUs | LOG REDUCTION ([3]; 20 mM EDC, 40° C., 44 hrs, about 2.5×10^5 spores on tissue): 5.4 | NUMBER OF COLONY FORMING UNITS (SURVIVORS) ([4]; enhancer 1 mM NHS): 0 | NUMBER OF COLONY FORMING UNITS (SURVIVORS) ([4]; enhancer 1 mM sulfo-NHS): 0 | NUMBER OF COLONY FORMING UNITS (SURVIVORS) ([4]; no enhancer): 0
